Test results: PMC7034070, “Synthesis, anti-inflammatory, cytotoxic, and COX-1/2 inhibitory activities of cyclic imides bearing 3-benzenesulfonamide, oxime, and β-phenylalanine scaffolds: a molecular docking study” (Journal of Enzyme Inhibition and Medicinal Chemistry, 2020)
Where “and” joins values, the source holds several entries; their conditions need not be identical. Equal values may be shown once.

Assays:
COX-1 = molecular target: T1, COX-1 (Ovis aries, UniProt P05979); test: colorimetric COX (ovine) inhibitor screening assay kit; type: biochemical; details: ovine COX-1, mean of two determinations
T1 construct: purchased Cayman Chemicals Inc., Ann Arbour, MI
T1 sequence (P05979 25-600): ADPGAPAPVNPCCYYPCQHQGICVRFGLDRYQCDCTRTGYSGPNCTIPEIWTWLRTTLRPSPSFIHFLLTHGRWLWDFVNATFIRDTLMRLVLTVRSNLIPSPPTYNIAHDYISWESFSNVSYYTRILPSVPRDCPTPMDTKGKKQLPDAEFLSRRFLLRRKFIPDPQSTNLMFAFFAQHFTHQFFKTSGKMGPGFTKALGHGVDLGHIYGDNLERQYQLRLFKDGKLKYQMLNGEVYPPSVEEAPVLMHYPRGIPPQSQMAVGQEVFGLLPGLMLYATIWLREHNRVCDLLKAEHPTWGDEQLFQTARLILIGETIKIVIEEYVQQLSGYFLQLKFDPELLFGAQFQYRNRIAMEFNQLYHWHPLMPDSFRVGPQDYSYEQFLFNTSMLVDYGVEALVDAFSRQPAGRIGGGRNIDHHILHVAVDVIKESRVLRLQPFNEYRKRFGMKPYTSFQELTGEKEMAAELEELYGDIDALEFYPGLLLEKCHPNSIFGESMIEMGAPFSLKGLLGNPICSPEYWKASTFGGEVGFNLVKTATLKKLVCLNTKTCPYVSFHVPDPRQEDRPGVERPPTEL
Text: (§1) To determine the relative ability of the test compounds and reference drugs to inhibit COX-1/COX-2 isozymes, we used the colorimetric COX (ovine) inhibitor screening assay kit (Cayman Chemicals Inc., Ann Arbour, MI), according to the manufacturer’s instructions[3]^,[10]^,[11]^,[20].

COX-2 = molecular target: T2, COX-2 (Ovis aries, UniProt P79208); test: as above; type: biochemical; details: for SI, selectivity index (COX-1 IC50/COX-2 IC50): ovine COX-1/COX-2; for IC50: ovine COX-2, mean of two determinations
T2 construct: purchased Cayman Chemicals Inc., Ann Arbour, MI
T2 sequence (P79208 17-603): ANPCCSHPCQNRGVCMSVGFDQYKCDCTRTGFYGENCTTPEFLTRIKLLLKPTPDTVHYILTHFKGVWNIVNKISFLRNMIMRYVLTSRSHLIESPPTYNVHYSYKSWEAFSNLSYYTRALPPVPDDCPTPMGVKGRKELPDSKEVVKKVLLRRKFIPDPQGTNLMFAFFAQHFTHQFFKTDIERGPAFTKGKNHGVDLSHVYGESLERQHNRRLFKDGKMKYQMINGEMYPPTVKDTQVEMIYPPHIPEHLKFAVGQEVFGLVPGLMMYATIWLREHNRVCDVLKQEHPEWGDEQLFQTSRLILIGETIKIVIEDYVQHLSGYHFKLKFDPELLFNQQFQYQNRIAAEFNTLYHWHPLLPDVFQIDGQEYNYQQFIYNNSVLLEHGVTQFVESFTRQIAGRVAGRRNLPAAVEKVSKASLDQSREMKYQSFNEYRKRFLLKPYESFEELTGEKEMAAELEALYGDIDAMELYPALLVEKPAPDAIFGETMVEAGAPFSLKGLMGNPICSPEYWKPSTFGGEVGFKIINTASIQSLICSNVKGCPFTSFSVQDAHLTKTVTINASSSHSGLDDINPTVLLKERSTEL
Text: as §1

SNB-75 (CNS Cancer) = test: NCI 59 cell line panel, single dose; type: cell-based; details: SNB-75, one dose 10.0 μM
[1] = tested on: carrageenan induced rat paw oedema; test: rat carrageenan-induced foot paw oedema model; type: in vivo; details: for Mean % increase in paw weight ± SEM / % Inhibition of paw oedema from control group: 2 h after carrageenan; for Mean % increase in paw weight ± SEM: control group 165.6 ± 1.6; for % Inhibition of paw oedema from control group: single dose screen (Table 1)
Experimental: Anti-inflammatory assessment of the newly synthesised compounds was carried out using an in vivo rat carrageenan-induced foot paw oedema model, as reported previously[16]^,[17].

59 cancer cell lines = test: full NCI 59 cell line panel assay, single dose; type: cell-based; details: one dose 10.0 μM, 59 cell lines
UO-31 (Renal Cancer) = test: NCI 59 cell line panel, single dose; type: cell-based; details: UO-31, one dose 10.0 μM
[2] = tested on: NCI-H522 (NSC Lung Cancer); test: NCI 59 cell line panel, single dose; type: cell-based; details: NCI-H522, one dose 10.0 μM
HOP-92 (NSC Lung Cancer) = test: NCI 59 cell line panel, single dose; type: cell-based; details: HOP-92, one dose 10.0 μM
mice = test: Ulcerogenicity measurement; type: in vivo
Experimental: Ulcerogenicity was evaluated according to a previously reported method[6]^a,[17]^,[18]. The number and total length of the ulcers for each animal were measured and their averages were calculated and used as the ulcer indices.

Structure (SMILES)	IC50 (COX-1)	SI, selectivity index (COX-1 IC50/COX-2 IC50) (COX-2)	IC50 (COX-2)	melting point	GI% (SNB-75 (CNS Cancer))	Mean % increase in paw weight ± SEM [1]	% Inhibition of paw oedema from control group [1]	PCE (positive cytotoxic effect: cell lines with growth inhibition >10% / total number of cell lines) (59 cancer cell lines)	GI% (UO-31 (Renal Cancer))	GI% [2]	GI% (HOP-92 (NSC Lung Cancer))	Average number of ulcers (mice; mice)	Mean sum of lengths of elongated ulcer (mice; mice, ± SEM)	level of ulcerogenic activity (in words) (mice; relative to diclofenac and celecoxib)	Percentage inhibition of paw oedema from control group ([1]; dose 45 mg/kg)	Percentage inhibition of paw oedema from control group ([1]; dose 65 mg/kg)	Percentage inhibition of paw oedema from control group ([1]; dose 80 mg/kg)	ED50 ([1]; from three graded doses (45, 65, 80 mg/kg))
CC(C)(C)c1ccc2c(c1)C(=O)N(c1cccc(S(N)(=O)=O)c1)C2=O [Compound 6, 3-(5-(tert-Butyl)-1,3-dioxoisoindolin-2-yl)benzenesulfonamide]	> 50 µM	>12.5	4 µM	151 to 153 °C	12%	106.1 ± 0.9%	40.9% and 40.9 ± 0.6%	2/59	–	–	19%	–	–	–	–	–	–	–
NS(=O)(=O)c1cccc(N2C(=O)c3c(Cl)c(Cl)c(Cl)c(Cl)c3C2=O)c1 [Compound 8]	–	–	–	–	13%	134.0 ± 0.9%	26.9% and 26.9 ± 0.5%	3/59	17%	–	11%	–	–	–	–	–	–	–
CC(=NO)c1ccc(N2C(=O)c3ccc([N+](=O)[O-])cc3C2=O)cc1 [Compound 18, 2-(4-(1-(Hydroxyimino)ethyl)phenyl)-5-nitroisoindoline-1,3-dione]	> 50 µM	>333.3	0.15 µM	269 to 271 °C	–	31.6 ± 0.4%	82.9% and 82.9 ± 0.8%	–	–	–	–	2	0.9 ± 0.08 mm	very low levels of ulcerogenic activity	70.1%	82.9%	91.9%	35.4 mg/kg

Now from value to molecule, other results behind:

IC50 (COX-1)	SI, selectivity index (COX-1 IC50/COX-2 IC50) (COX-2)	IC50 (COX-2)	melting point	Structure (SMILES)	GI% (SNB-75 (CNS Cancer))	Mean % increase in paw weight ± SEM [1]	% Inhibition of paw oedema from control group [1]	PCE (positive cytotoxic effect: cell lines with growth inhibition >10% / total number of cell lines) (59 cancer cell lines)	GI% (UO-31 (Renal Cancer))	GI% [2]	GI% (HOP-92 (NSC Lung Cancer))	Average number of ulcers (mice; mice)	Mean sum of lengths of elongated ulcer (mice; mice, ± SEM)	level of ulcerogenic activity (in words) (mice; relative to diclofenac and celecoxib)	Percentage inhibition of paw oedema from control group ([1]; dose 45 mg/kg)	Percentage inhibition of paw oedema from control group ([1]; dose 65 mg/kg)	Percentage inhibition of paw oedema from control group ([1]; dose 80 mg/kg)	ED50 ([1]; from three graded doses (45, 65, 80 mg/kg))
> 50 µM	>250.0	0.2 µM	159 to 161 °C	NS(=O)(=O)c1cccc(N2C(=O)C3CC=CCC3C2=O)c1 (centres unmarked) [Compound 3, 3-(1,3-Dioxo-1,3,3a,4,7,7a-hexahydro-2H-isoindol-2-yl)benzenesulfonamide]	12%	42.4 ± 0.2%	77.0% and 77.0 ± 0.6%	3/59	16%	12%	–	–	–	–	–	–	–	–
16.6 µM	0.55	30.3 µM	259 to 261 °C	O=C(O)CC(c1ccccc1)N1C(=O)CCC1=O (centres unmarked) [Compound 21, 3-(2,5-Dioxopyrrolidin-1-yl)-3-phenylpropanoic acid]	–	98.9 ± 0.6%	46.4% and 46.4 ± 0.3%	–	–	–	–	–	–	–	–	–	–	–
18.2 µM	0.61	30 µM	191 to 193 °C	O=C(O)CC(c1ccccc1)N1C(=O)c2ccc([N+](=O)[O-])cc2C1=O (centres unmarked) [Compound 28, 3-(5-Nitro-1,3-dioxoisoindolin-2-yl)-3-phenylpropanoic acid]	–	100.9 ± 0.8%	42.5% and 42.5 ± 0.2%	–	–	–	–	–	–	–	–	–	–	–
